Assay results as given in US10213433B2 (AbbVie Inc., priority 2010, dated 2019).

These compounds were tested against Bcl-2 protein (Homo sapiens (Human), UniProt P10415) (assay: Bcl-2 binding TR-FRET (Time-Resolved Fluorescence-Resonance-Energy-Transfer) assay). Settings: inhibition constant for binding to Bcl-2 protein.
Source text: The smaller the Ki value, the greater is the binding affinity.

Bcl-2 protein, sequence (P10415 whole entry): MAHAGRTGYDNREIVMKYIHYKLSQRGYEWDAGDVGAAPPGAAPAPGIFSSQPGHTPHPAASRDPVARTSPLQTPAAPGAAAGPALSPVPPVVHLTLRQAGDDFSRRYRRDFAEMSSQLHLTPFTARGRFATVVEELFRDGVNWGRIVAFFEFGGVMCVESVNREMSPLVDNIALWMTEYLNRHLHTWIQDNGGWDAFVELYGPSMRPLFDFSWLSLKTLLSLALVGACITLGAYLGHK

Q: How did the Ki turn out when `CC1(C)CCC(CN2CCN(c3ccc(C(=O)NS(=O)(=O)c4ccc(N[C@@H]5CCN(CC(F)F)C5)c([N+](=O)[O-])c4)c(Oc4cnc5[nH]ccc5c4)c3)CC2)=C(c2ccc(Cl)cc2)C1` [Compound 180, 4-(4-{[2-(4-chlorophenyl)-4,4-dimethylcyclohex-1-en-1-yl]methyl}piperazin-1-yl)-N-[(4-{[(3R)-1-(2,2-difluoroethyl)pyrrolidin-3-yl]amino}-3-nitrophenyl)sulfonyl]-2-(1H-pyrrolo[2,3-b]pyridin-5-yloxy)benzamide] was run?
A: < 0.01 nM

Q: Which Ki does the source give for `CC1(C)CCC(CN2CCN(c3ccc(C(=O)NS(=O)(=O)c4cnc(OCC5CCc6nccn6C5)c(Cl)c4)c(Oc4cnc5[nH]ccc5c4)c3)CC2)=C(c2ccc(Cl)cc2)C1` (stereo not shown) [Compound 342, 4-(4-{[2-(4-chlorophenyl)-4,4-dimethylcyclohex-1-en-1-yl]methyl}piperazin-1-yl)-N-{[5-chloro-6-(5,6,7,8-tetrahydroimidazo[1,2-a]pyridin-6-ylmethoxy)pyridin-3-yl]sulfonyl}-2-(1H-pyrrolo[2,3-b]pyridin-5-yloxy)benzamide] here?
A: < 0.01 nM

Q: Which Ki does the source give for `O=C(NS(=O)(=O)c1ccc(OCC2(F)CCOCC2)c(Cl)c1)c1ccc(N2CCN(CC3=C(c4ccc(Cl)cc4)CCC4(CCN(C5COC5)CC4)C3)CC2)cc1Oc1cnc2[nH]ccc2c1` [Compound 325, N-({3-chloro-4-[(4-fluorotetrahydro-2H-pyran-4-yl)methoxy]phenyl}sulfonyl)-4-(4-{[9-(4-chlorophenyl)-3-(oxetan-3-yl)-3-azaspiro[5.5]undec-8-en-8-yl]methyl}piperazin-1-yl)-2-(1H-pyrrolo[2,3-b]pyridin-5-yloxy)benzamide] here?
A: < 0.01 nM

Q: Which Ki does the source give for `CC1(C)CCC(CN2CCN(c3ccc(C(=O)NS(=O)(=O)c4ccc(NC5CCN(C6COC6)CC5)c([N+](=O)[O-])c4)c(Oc4cnc5[nH]ccc5c4)c3)CC2)=C(c2ccc(Cl)cc2)C1` [Compound 139, 4-(4-{[2-(4-chlorophenyl)-4,4-dimethylcyclohex-1-en-1-yl]methyl}piperazin-1-yl)-N-({3-nitro-4-[(1-oxetan-3-ylpiperidin-4-yl)amino]phenyl}sulfonyl)-2-(1H-pyrrolo[2,3-b]pyridin-5-yloxy)benzamide] here?
A: < 0.01 nM

Q: With `C[C@]1(O)CC[C@@H](COc2ncc(S(=O)(=O)NC(=O)c3ccc(N4CCN(CC5=C(c6ccc(Cl)cc6)CC6(CC5)CC6)CC4)cc3Oc3cnc4[nH]ccc4c3)cc2Cl)CC1` [Compound 341, N-({5-chloro-6-[(trans-4-hydroxy-4-methylcyclohexyl)methoxy]pyridin-3-yl}sulfonyl)-4-(4-{[5-(4-chlorophenyl)spiro[2.5]oct-5-en-6-yl]methyl}piperazin-1-yl)-2-(1H-pyrrolo[2,3-b]pyridin-5-yloxy)benzamide] as the compound, how does the Ki read?
A: < 0.01 nM

Q: How did the Ki turn out when `CC1(C)CCC(CN2CCN(c3ccc(C(=O)NS(=O)(=O)c4cnc(O[C@H]5CC[C@H](N6CCOCC6)CC5)c(Br)c4)c(Oc4cnc5[nH]ccc5c4)c3)CC2)=C(c2ccc(Cl)cc2)C1` [Compound 124] was run?
A: < 0.01 nM

Q: With `CN(C)CC(=O)N1CCOC(CNc2ccc(S(=O)(=O)NC(=O)c3ccc(N4CCN(CC5=C(c6ccc(Cl)cc6)CC(C)(C)CC5)CC4)cc3Oc3cnc4[nH]ccc4c3)cc2[N+](=O)[O-])C1` (stereo not shown) [Compound 215, 4-(4-{[2-(4-chlorophenyl)-4,4-dimethylcyclohex-1-en-1-yl]methyl}piperazin-1-yl)-N-{[4-({[4-(N,N-dimethylglycyl)morpholin-2-yl]methyl}amino)-3-nitrophenyl]sulfonyl}-2-(1H-pyrrolo[2,3-b]pyridin-5-yloxy)benzamide] as the compound, how does the Ki read?
A: < 0.01 nM

Q: `CC1(C)CCCC(CN2CCN(c3ccc(C(=O)NS(=O)(=O)c4ccc(NCC5CCOCC5)c([N+](=O)[O-])c4)c(Oc4cnc5[nH]ccc5c4)c3)CC2)=C1c1ccc(Cl)cc1` [Compound 150, 4-(4-{[2-(4-chlorophenyl)-3,3-dimethylcyclohex-1-en-1-yl]methyl}piperazin-1-yl)-N-({3-nitro-4-[(tetrahydro-2H-pyran-4-ylmethyl)amino]phenyl}sulfonyl)-2-(1H-pyrrolo[2,3-b]pyridin-5-yloxy)benzamide] was tested. Which Ki did it give?
A: < 0.01 nM

Q: With `CC1(C)CCC(CN2CCN(c3ccc(C(=O)NS(=O)(=O)c4ccc(NCC5CN(CC(F)F)CCO5)c([N+](=O)[O-])c4)c(Oc4cnc5[nH]ccc5c4)c3)CC2)=C(c2ccc(Cl)cc2)C1` (stereo not shown) [Compound 166, 4-(4-{[2-(4-chlorophenyl)-4,4-dimethylcyclohex-1-en-1-yl]methyl}piperazin-1-yl)-N-{[4-({[4-(2,2-difluoroethyl)morpholin-2-yl]methyl}amino)-3-nitrophenyl]sulfonyl}-2-(1H-pyrrolo[2,3-b]pyridin-5-yloxy)benzamide] as the compound, how does the Ki read?
A: < 0.01 nM

Q: How did the Ki turn out when `COCCNc1ccc(S(=O)(=O)NC(=O)c2ccc(N3CCN(CC4=C(c5ccc(Cl)cc5)CC(C)(C)CC4)CC3)cc2Oc2cnc3[nH]ccc3c2)cc1[N+](=O)[O-]` [Compound 10, 4-(4-{[2-(4-chlorophenyl)-4,4-dimethylcyclohex-1-en-1-yl]methyl}piperazin-1-yl)-N-({4-[(2-methoxyethyl)amino]-3-nitrophenyl}sulfonyl)-2-(1H-pyrrolo[2,3-b]pyridin-5-yloxy)benzamide] was run?
A: < 0.01 nM

Q: Which Ki does the source give for `CC1(C)CCC(CN2CCN(c3ccc(C(=O)NS(=O)(=O)c4ccc(N[C@@H]5CCN(C6CCOCC6)C5)c([N+](=O)[O-])c4)c(Oc4cnc5[nH]ccc5c4)c3)CC2)=C(c2ccc(Cl)cc2)C1` [Compound 130, 4-(4-{[2-(4-chlorophenyl)-4,4-dimethylcyclohex-1-en-1-yl]methyl}piperazin-1-yl)-N-[(3-nitro-4-{[(3R)-1-tetrahydro-2H-pyran-4-ylpyrrolidin-3-yl]amino}phenyl)sulfonyl]-2-(1H-pyrrolo[2,3-b]pyridin-5-yloxy)benzamide] here?
A: < 0.01 nM

Q: `CC1(C)CCC(CN2CCN(c3ccc(C(=O)NS(=O)(=O)c4ccc(NC[C@@H]5CCN(C6CCOCC6)C5)c([N+](=O)[O-])c4)c(Oc4cnc5[nH]ccc5c4)c3)CC2)=C(c2ccc(Cl)cc2)C1` [Compound 145, 4-(4-{[2-(4-chlorophenyl)-4,4-dimethylcyclohex-1-en-1-yl]methyl}piperazin-1-yl)-N-{[3-nitro-4-({[(3S)-1-tetrahydro-2H-pyran-4-ylpyrrolidin-3-yl]methyl}amino)phenyl]sulfonyl}-2-(1H-pyrrolo[2,3-b]pyridin-5-yloxy)benzamide] was tested. Which Ki did it give?
A: < 0.01 nM

Q: How did the Ki turn out when `CC1(C)CCC(CN2CCN(c3ccc(C(=O)NS(=O)(=O)c4ccc(NC5CCN(C6CCOC(C)(C)C6)CC5)c([N+](=O)[O-])c4)c(Oc4cnc5[nH]ccc5c4)c3)CC2)=C(c2ccc(Cl)cc2)C1` (stereo not shown) [Compound 141, 4-(4-{[2-(4-chlorophenyl)-4,4-dimethylcyclohex-1-en-1-yl]methyl}piperazin-1-yl)-N-[(4-{[1-(2,2-dimethyltetrahydro-2H-pyran-4-yl)piperidin-4-yl]amino}-3-nitrophenyl)sulfonyl]-2-(1H-pyrrolo[2,3-b]pyridin-5-yloxy)benzamide] was run?
A: < 0.01 nM

Q: Which Ki does the source give for `CC1(C)CCC(CN2CCN(c3ccc(C(=O)NS(=O)(=O)c4ccc(N[C@@H]5CC[C@H](N6CCOCC6)C5)c([N+](=O)[O-])c4)c(Oc4cnc5[nH]ccc5c4)c3)CC2)=C(c2ccc(Cl)cc2)C1` [Compound 112, 4-(4-{[2-(4-chlorophenyl)-4,4-dimethylcyclohex-1-en-1-yl]methyl}piperazin-1-yl)-N-[(4-{[(1R,3S)-3-morpholin-4-ylcyclopentyl]amino}-3-nitrophenyl)sulfonyl]-2-(1H-pyrrolo[2,3-b]pyridin-5-yloxy)benzamide] here?
A: < 0.01 nM

Q: For `O=C(NS(=O)(=O)c1ccc(NCCCN2CCOCC2)c([N+](=O)[O-])c1)c1ccc(N2CCN(Cc3ccccc3-c3ccc(Cl)cc3)CC2)cc1Oc1cnc2[nH]ccc2c1` [Compound 2, 4-{4-[(4′-chloro-1,1′-biphenyl-2-yl)methyl]piperazin-1-yl}-N-({4-[(3-morpholin-4-ylpropyl)amino]-3-nitrophenyl}sulfonyl)-2-(1H-pyrrolo[2,3-b]pyridin-5-yloxy)benzamide], which Ki is on record?
A: < 0.01 nM

Q: For `CC1(C)CCC(CN2CCN(c3ccc(C(=O)NS(=O)(=O)c4ccc(NC[C@H]5CC[C@H](O)C5)c([N+](=O)[O-])c4)c(Oc4cnc5[nH]ccc5c4)c3)CC2)=C(c2ccc(Cl)cc2)C1` [Compound 157, 4-(4-{[2-(4-chlorophenyl)-4,4-dimethylcyclohex-1-en-1-yl]methyl}piperazin-1-yl)-N-{[4-({[(1S,3S)-3-hydroxycyclopentyl]methyl}amino)-3-nitrophenyl]sulfonyl}-2-(1H-pyrrolo[2,3-b]pyridin-5-yloxy)benzamide], which Ki is on record?
A: < 0.01 nM

Q: `CC1(C)CCC(CN2CCN(c3ccc(C(=O)NS(=O)(=O)c4ccc(NCC56CC7CC(C5)C(O)C(C7)C6)c([N+](=O)[O-])c4)c(Oc4cnc5[nH]ccc5c4)c3)CC2)=C(c2ccc(Cl)cc2)C1` (stereo not shown) [Compound 200, 4-(4-{[2-(4-chlorophenyl)-4,4-dimethylcyclohex-1-en-1-yl]methyl}piperazin-1-yl)-N-{[4-({[(Z)-4-hydroxy-1-adamantyl]methyl}amino)-3-nitrophenyl]sulfonyl}-2-(1H-pyrrolo[2,3-b]pyridin-5-yloxy)benzamide] was tested. Which Ki did it give?
A: < 0.01 nM

Q: With `CN1CCC(F)(COc2ccc(S(=O)(=O)NC(=O)c3ccc(N4CCN(CC5=C(c6ccc(Cl)cc6)CC(C)(C)CC5)CC4)cc3Oc3cnc4[nH]ccc4c3)cc2Cl)CC1` [Compound 283, N-({3-chloro-4-[(4-fluoro-1-methylpiperidin-4-yl)methoxy]phenyl}sulfonyl)-4-(4-{[2-(4-chlorophenyl)-4,4-dimethylcyclohex-1-en-1-yl]methyl}piperazin-1-yl)-2-(1H-pyrrolo[2,3-b]pyridin-5-yloxy)benzamide] as the compound, how does the Ki read?
A: < 0.01 nM

Q: How did the Ki turn out when `CC1(C)CCC(CN2CCN(c3ccc(C(=O)NS(=O)(=O)c4ccc(NC5CCN(C(C)(C)C)CC5)c([N+](=O)[O-])c4)c(Oc4cnc5[nH]ccc5c4)c3)CC2)=C(c2ccc(Cl)cc2)C1` [Compound 227, N-({4-[(1-tert-butylpiperidin-4-yl)amino]-3-nitrophenyl}sulfonyl)-4-(4-{[2-(4-chlorophenyl)-4,4-dimethylcyclohex-1-en-1-yl]methyl}piperazin-1-yl)-2-(1H-pyrrolo[2,3-b]pyridin-5-yloxy)benzamide] was run?
A: < 0.01 nM
